Experimental findings from patent US20250025490A1, “INDUCTION OF TRAINED IMMUNITY FOR THE TREATMENT OF HYPERPROLIFERATIVE DISORDERS” (priority 2021, published 2025) are described below.

Assay type in all cases: cell-based, mice
Series [1] relates to peritoneal macrophages. Description: In vitro training and re-stimulation of peritoneal macrophages (Example 2), TNF-α ELISA. As for the experimental part:
Isolation and culture of peritoneal macrophages. Mice were euthanized with CO2 inhalation and injected i.p. with 5 ml of sterile cold, complete DMEM medium (Sigma Aldrich) followed by gentle massage of the peritoneum. The peritoneal fluid was then collected, centrifuged at 1600 rpm for 5 min. The cell pellet was washed, counted, and plated at appropriate numbers in complete DMEM. The cells were incubated for 2-4 hours at 37° C. and 5% CO2 to allow peritoneal macrophages attached to the plates. The floating cells were aspirated and plates were gently washed with sterile pre-warmed medium and then added with fresh complete DMEM. For comparison studies between different mouse strains, peritoneal cells were stained with viability dye and anti-F4/80 antibodies (Biolegend) and F4/80^+ macrophages were sorted by FACS Aria III (BD Bioscience).
In vitro training and re-stimulation of peritoneal macrophages. Peritoneal macrophages were treated with 25 μg/ml of WGP or polystyrene beads (3 μm, Sigma-Aldrich) and incubated for 24 h at 37°° C. with 5% CO2. Macrophages were then washed with pre-warmed complete DMEM at least twice to remove excess WGP or polystyrene beads, added with fresh complete DMEM and incubated 6 days. On day 7, macrophages were re-stimulated with different stimuli such as LPS (10 ng/ml) (Sigma), tumor cells, tumor cell culture supernatants (40%) or rMIF (100 ng/ml) (kindly provided by Dr. Robert Mitchell) for 24 h. The culture supernatants were harvested and assayed for TNF-α by ELISA. For cell culture supernatants, tumor cell lines including LLC, B16F10, and EL4, and control cell line MLE-12 were used.
These cell lines were cultured (1 million/4 ml complete DMEM) in a 6-well plate and incubated for 72 h. The supernatants were harvested and stored at −80° C. in aliquots.
ELISA for TNF-α and MIF. TNF-α in the culture supernatants was measured using TNF-α ELISA kit (Biolegend) and MIF levels in the culture supernatants were quantified using mouse MIF ELISAkit (R&D Systems) per the manufacturer's instruction.
In vitro training with S1P. Peritoneal macrophages were stimulated with 200 nM or 300 nM of S1P for 24 h at 37° C. and 5% CO2. The macrophages were then washed and allowed for resting. On day 7, the macrophages were stimulated with LPS (10 ng/ml) or LLC culture supernatant (40%) for 24 h and the supernatants were collected for the quantification of TNF-α using ELISA. For another set of in vitro-training experiment, macrophages were trained with S1P in the presence of Mdivi-1 (10 μM) during S1P training and throughout the resting period. Cells were restimulated with LPS and the supernatants were collected to determine TNF-α levels by ELISA.
[…] The inhibitors were further added to the macrophage cultures and incubated at 37° C. and 5% CO2 for 6 more days. On day 7, the macrophages were washed once with pre-warmed complete DMEM and added LPS (10 ng/ml) or LLC culture supernatant (40%) for re-stimulation.

The next series has as its system KPC tumor cells. Description: Cytotoxicity assay of pancreatic CD11b+ cells against KPCLuc+ cells. The note with it: NAC 1 mM. The method, then:
The pancreas from WGP and PBS treated mice were harvested and the CD11b^+ populations were isolated using magnetic CD11b^+ MicroBeads (Miltenyi Biotec) and an autoMACS Pro Separator (Miltenyi Biotec). Purified CD11b^+ cells were then washed and counted, and these were plated at a ratio of 1:20 tumor:effector cells in a 96 well plate. All experimental samples were run in triplicate. After plating the CD11b^+ cells, the ROS inhibitor […] (NAC) (Sigma Aldrich) was added to one set of PBS and WGP derived cells at 1 mM for 1 hour before the addition of 5000 luciferase expressing KPC^+ pancreatic tumor cells to all wells. After 24 hours, of coculture, the plates were centrifuged and 20 μL of the supernatant was mixed with 100 μL of the Luciferase Assay Reagent (Promega). Luciferase activity measured in the supernatant correlated with tumor cells that had been killed by the effector cells and was measured using a luminometer (Femtomaster FB 12, Zylux Corporation). The spontaneous luciferase signal from plated tumor cells was subtracted from the measurement of the supernatant. Luciferase values are represented as Relative Light Units (RLUs).

A further series concerns Drp-1. The experiment in a line: p-Drp-1 / Drp-1 by flow cytometry and Western blot. As for the experimental part:
(§1) Mitochondrial ROS quantitation. Peritoneal macrophages were treated with WGP or S1P in the presence or absence of Mdivi-1 and incubated at 37° C. with 5% CO2 for 24 h. The cells were then harvested, washed with PBS and pelleted by centrifugation at 1600 rpm for 5 min at room temperature. The pellets were then stained with MitoSOX Red dye (5 μM) (Invitrogen) at 37° C. for 15 min. The cells were washed with pre-warmed HBSS followed by another wash with PBS at room temperature. The cells were then stained with viability dye and anti-F4/80 and then acquired by flow cytometry. Flow cytometry for p-Drp-1. Peritoneal macrophages were treated with WGP (25 μg/ml) or S1P (1 μM) and incubated at 37° C. with 5% CO2 for 3-4 h. Following the completion of incubation, the cells were quickly washed with cold PBS to stop the activation. The cells were harvested and washed with PBS. The cells were then fixed with 4% formaldehyde for 15 min at room temperature, washed with PBS and permeabilized using ice-cold 100% methanol on ice for a minimum of 10 min. The cells were then stained with primary antibody (p-Drp1) (Cell Signaling) for 1 hour at room temperature followed by secondary antibody (Anti-rabbit IgG) (Biolegend) for 30 min at room temperature as instructed in the Cell Signaling phospho-stain protocol and analyzed using flow cytometry.
Western blot analysis for total Drp-1 and p-Drp-1. […]

Series [2] relates to peritoneal macrophages. The experiment in a line: Mitochondrial ROS quantitation (MitoSox Red). The note with it: peritoneal macrophages, 24 h. The method, then:
as §1

Regarding `CCCC[C@@H](C)[C@@H](OC(=O)C[C@@H](CC(=O)O)C(=O)O)[C@H](C[C@@H](C)C[C@H](O)CCCC[C@@H](O)C[C@H](O)[C@H](C)N)OC(=O)C[C@@H](CC(=O)O)C(=O)O` [Fumonisin-B1], in the series with peritoneal macrophages [1] (Fumonisin-B1 25 μM, LPS and LLC supernatants), the “effect on WGP-mediated trained response (TNF-α)” value is recorded as “abrogated WGP-mediated trained response”.
`CC(=O)N[C@@H](CS)C(=O)O` [NAC, N-Acetyl Cysteine]: the “effect of ROS inhibition on WGP-elicited cytotoxicity” value with KPC tumor cells was “completely abrogated the WGP-elicited increase in cytotoxicity”.
Regarding `CCCCCCCCCCCCC/C=C/[C@@H](O)[C@@H](N)COP(=O)(O)O` [S1P, sphingosine-1-phosphate], in the series on peritoneal macrophages [1] (S1P 200 nM or 300 nM, LPS or LLC supernatant restimulation), the “TNF-α production of macrophages trained with S1P” value is reported as “showed significantly higher TNF-α production compared to the untrained controls”. Besides, the “phosphorylation of Drp-1” value in the series on Drp-1 (peritoneal macrophages) is listed as “significantly increased p-Drp-1 in macrophages”. The mtROS production result in the series on peritoneal macrophages [2] is reported as “exhibited an enhanced mtROS production”.
As to `O=C(NCc1ccncc1)C12CC3CC(C1)CC(c1ccc(Cl)cc1)(C3)C2` [Sphk2i], the “effect on WGP trained responses (TNF-α)” value with peritoneal macrophages [1] (Sphk2i 25 μM or 50 μM, LPS and LLC supernatant) is “completely attenuated the trained responses”. Further, in the series with Drp-1 (Sphk2i 50 μM, 3 h and 6 h), the “effect on p-Drp-1 in WGP-treated macrophages” value is given as “decreased the level of p-Drp-1 but not total Drp-1”.
